Measured values reported in ChEMBL document CHEMBL1201862, “PubChem BioAssay data set” (2004).
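Tested at 5 concentrations; 48 h exposure; 96-well plates; endpoints linearly interpolated, else capped at highest concentration. Here, GI50 denotes the concentration required for 50% inhibition of growth.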 Active and inactive are the calls of the source. No stated cut-off is given here; in the data, active = GI50 up to about 1.1 µM and inactive = higher.

What was measured:
Test in all cases: NCI-60 cell line screen, 48 h
SNB-19 = system: SNB-19
OVCAR-8 = system: OVCAR-8
IGROV-1 = system: IGROV-1
HCC 2998 = system: HCC 2998
HOP-92 = system: HOP-92
HOP-62 = system: HOP-62
786-0 = system: 786-0
UO-31 = system: UO-31
SF-539 = system: SF-539
MDA-MB-435 = system: MDA-MB-435
NCI-H226 = system: NCI-H226
SW-620 = system: SW-620
SK-MEL-28 = system: SK-MEL-28
NCI-H23 = system: NCI-H23
CCRF-CEM = system: CCRF-CEM
M14 = system: M14
OVCAR-4 = system: OVCAR-4
HL-60 = system: HL-60
LOX IMVI = system: LOX IMVI
EKVX = system: EKVX
MOLT-4 = system: MOLT-4
A549 = system: A549
CAKI-1 = system: CAKI-1
SK-MEL-5 = system: SK-MEL-5
RXF 393 = system: RXF 393
U-251 = system: U-251
HCT-15 = system: HCT-15
COLO 205 = system: COLO 205
Hs-578T = system: Hs-578T
OVCAR-5 = system: OVCAR-5
SF-268 = system: SF-268
MDA-N = system: MDA-N
HCT-116 = system: HCT-116
NCI-H522 = system: NCI-H522
HT-29 = system: HT-29
TK-10 = system: TK-10
OVCAR-3 = system: OVCAR-3
SK-OV-3 = system: SK-OV-3
MDA-MB-231 = system: MDA-MB-231
A498 = system: A498
NCI-H460 = system: NCI-H460
SN12C = system: SN12C
UACC-257 = system: UACC-257
BT-549 = system: BT-549
PC-3 = system: PC-3
NCI/ADR-RES = system: NCI/ADR-RES
T47D = system: T47D
UACC-62 = system: UACC-62
K562 = system: K562
DU-145 = system: DU-145
KM12 = system: KM12
ACHN = system: ACHN
SNB-75 = system: SNB-75
MCF7 = system: MCF7
SF-295 = system: SF-295
Malme-3M = system: Malme-3M
SK-MEL-2 = system: SK-MEL-2
RPMI-8226 = system: RPMI-8226
SR = system: SR

Measured: GI50

CCn1c2ccccc2c2cc(NC(=O)c3c(C)nc(O)nc3NCCNCCO)ccc21
> 100 µM: HCT-15
inactive: SNB-19 > 100 µM | OVCAR-8 > 100 µM | IGROV-1 > 100 µM | HCC 2998 > 100 µM | HOP-92 > 100 µM | HOP-62 > 100 µM | 786-0 > 100 µM | UO-31 > 100 µM | SF-539 > 100 µM | MDA-MB-435 > 100 µM | NCI-H226 > 100 µM | SW-620 > 100 µM | SK-MEL-28 > 100 µM | NCI-H23 > 100 µM | CCRF-CEM > 100 µM | M14 > 100 µM | OVCAR-4 > 100 µM | HL-60 1.58 µM | LOX IMVI > 100 µM | EKVX > 100 µM | MOLT-4 > 100 µM | A549 > 100 µM | CAKI-1 > 100 µM | SK-MEL-5 > 100 µM | RXF 393 > 100 µM | U-251 > 100 µM | COLO 205 > 100 µM | Hs-578T > 100 µM | OVCAR-5 > 100 µM | SF-268 > 100 µM | MDA-N > 100 µM | HCT-116 > 100 µM | NCI-H522 > 100 µM | HT-29 > 100 µM | TK-10 > 100 µM | OVCAR-3 > 100 µM | SK-OV-3 > 100 µM | MDA-MB-231 > 100 µM | A498 > 100 µM | NCI-H460 > 100 µM | SN12C > 100 µM | UACC-257 > 100 µM | BT-549 > 100 µM | PC-3 > 100 µM | NCI/ADR-RES > 100 µM | T47D > 100 µM | UACC-62 > 100 µM | K562 > 100 µM | DU-145 > 100 µM | KM12 > 100 µM | ACHN > 100 µM | SNB-75 > 100 µM | MCF7 > 100 µM | SF-295 > 100 µM | Malme-3M > 100 µM

O=[N+]([O-])c1cccc(-c2csc(N/N=C3\NC/C(=C/c4ccc5c(c4)OCO5)S3)n2)c1
inactive: SNB-19 20.5 µM | OVCAR-8 14.3 µM | IGROV-1 21 µM | HCC 2998 31.9 µM | HOP-92 16.1 µM | HOP-62 25.2 µM | 786-0 38.4 µM | UO-31 25.9 µM | SF-539 40.8 µM | MDA-MB-435 40.2 µM | NCI-H226 16.6 µM | SW-620 34 µM | SK-MEL-2 22.1 µM | NCI-H23 20.1 µM | CCRF-CEM 35.4 µM | M14 23.3 µM | OVCAR-4 27.9 µM | HL-60 26.6 µM | RPMI-8226 37.7 µM | LOX IMVI 50.7 µM | EKVX 9.02 µM | MOLT-4 34.4 µM | A549 39.4 µM | CAKI-1 38.4 µM | SK-MEL-5 17.3 µM | RXF 393 22.6 µM | U-251 33.4 µM | COLO 205 28.4 µM | Hs-578T 24.2 µM | OVCAR-5 28.4 µM | SF-268 23.3 µM | MDA-N 30.4 µM | HCT-116 30.6 µM | NCI-H522 18.2 µM | HT-29 22.4 µM | TK-10 32.2 µM | OVCAR-3 30.3 µM | SK-OV-3 26.8 µM | MDA-MB-231 35.1 µM | A498 15.2 µM | NCI-H460 33.5 µM | SN12C 37.2 µM | UACC-257 35.9 µM | BT-549 25.1 µM | PC-3 21.5 µM | NCI/ADR-RES 19.6 µM | T47D 29.9 µM | UACC-62 18.8 µM | K562 38.3 µM | DU-145 33.8 µM | KM12 12.9 µM | ACHN 28.9 µM | SNB-75 15.4 µM | MCF7 33.7 µM | SF-295 35 µM
35.7 µM: HCT-15

C[C@@H]1C(=O)CC2(O)[C@@]13C[C@@H](OC(=O)[C@@H]3O)[C@@H](C)[C@@]21COC1=O (stereo partly drawn)
> 100 µM: HCT-15
inactive: SNB-19 > 100 µM | OVCAR-8 > 100 µM | IGROV-1 > 100 µM | HCC 2998 > 100 µM | HOP-62 > 100 µM | 786-0 > 100 µM | UO-31 > 100 µM | SF-539 > 100 µM | MDA-MB-435 > 100 µM | NCI-H226 > 100 µM | SW-620 > 100 µM | SK-MEL-28 > 100 µM | SK-MEL-2 > 100 µM | NCI-H23 > 100 µM | CCRF-CEM > 100 µM | M14 > 100 µM | OVCAR-4 > 100 µM | HL-60 > 100 µM | RPMI-8226 > 100 µM | LOX IMVI > 100 µM | EKVX > 100 µM | MOLT-4 > 100 µM | A549 > 100 µM | SK-MEL-5 > 100 µM | RXF 393 > 100 µM | U-251 > 100 µM | COLO 205 > 100 µM | Hs-578T > 100 µM | OVCAR-5 > 100 µM | SF-268 > 100 µM | MDA-N > 100 µM | HCT-116 > 100 µM | NCI-H522 > 100 µM | HT-29 > 100 µM | TK-10 > 100 µM | OVCAR-3 > 100 µM | SK-OV-3 > 100 µM | MDA-MB-231 > 100 µM | SR > 100 µM | NCI-H460 > 100 µM | SN12C > 100 µM | UACC-257 > 100 µM | BT-549 > 100 µM | PC-3 > 100 µM | NCI/ADR-RES > 100 µM | T47D > 100 µM | UACC-62 > 100 µM | K562 > 100 µM | DU-145 > 100 µM | KM12 > 100 µM | ACHN > 100 µM | SNB-75 > 100 µM | MCF7 > 100 µM | SF-295 > 100 µM | Malme-3M > 100 µM
